≈ marks a conversion by molar mass, not a printed value. Entries after “also recorded” stand apart in the source; their conditions may differ. Where two headings read alike, the source gives them in different places. Blank lines part the entries; values can stand above or below the molecule they belong to.
Tests used:
[1] = tested on: C. difficile ATCC 43255; assay: Determination of minimal-inhibitory concentrations (microdilution), C. difficile ATCC 43255; format: cell-based, Clostridioides difficile; details: for MIC C. difficile: Table 1; for MIC: Clostridioides difficile
[2] = tested on: S. aureus; assay: MIC against S. aureus strains; format: cell-based; details: S. aureus ATCC 29213, 24 h; for MIC: Staphylococcus aureus, ATCC29213, 24 h, read-out: MIC (μg/mL) 24 h
[3] = tested on: THP-1 cells; assay: Lactate dehydrogenase (LDH) cytotoxicity assay; format: cell-based, human; details: for IC50: Homo sapiens
[4] = Solubility observed during characterisation; details: DMSO, room temperature
[5] = tested on: HepG2 cells; assay: XTT cytotoxicity assay; format: cell-based; details: Homo sapiens, HepG2, read-out: XTT IC50
[6] = tested on: K. pneumoniae ATCC700603; assay: MIC against K. pneumoniae; format: cell-based; details: Klebsiella pneumoniae, ATCC700603
[7] = tested on: A. baumanii ATCC17961; assay: MIC against A. baumanii; format: cell-based; details: Acinetobacter baumannii, ATCC17961
[8] = tested on: P. aeruginosa ATCC27853; assay: MIC against P. aeruginosa; format: cell-based; details: Pseudomonas aeruginosa, ATCC27853
[9] = tested on: E. aerogenes ATCC35029; assay: MIC against E. aerogenes; format: cell-based; details: Klebsiella aerogenes, ATCC35029
[10] = tested on: E. coli ATCC25922; assay: MIC against E. coli; format: cell-based; details: Escherichia coli, ATCC25922
[11] = tested on: extended panel of Gram-positive bacteria; assay: MIC range over extended panel of Gram-positive bacteria; format: cell-based
[12] = tested on: Gram-negative bacteria; format: cell-based
[13] = tested on: C. difficile ATCC 43255; assay: Minimal-bactericidal concentration (MBC); format: cell-based, Clostridioides difficile
[14] = tested on: C. difficile ATCC 43255; format: cell-based, Clostridioides difficile
[15] = tested on: Bacteroides fragilis HM-709; details: cited from earlier work
[16] = tested on: Bifidobacterium longum HM-846; details: cited from earlier work
[17] = tested on: Fusobacterium nucleatum HM-992; details: cited from earlier work
[18] = tested on: Lactobacillus reuteri HM-102; details: cited from earlier work
[19] = tested on: Lactobacillus gasseri HM-644; details: cited from earlier work
[20] = tested on: Veillonella sp. HM-49; details: cited from earlier work
[21] = tested on: Clostridioides difficile infection; details: CDI patients; cited from earlier work
[22] = tested on: C. difficile ATCC 43255 vegetative cells; assay: Mode of action by scanning electron microscopy (SEM); details: 8× MIC for 24 h
[23] = tested on: C. difficile strain ATCC43255 spores; assay: Spore germination inhibition assay; format: cell-based, Clostridioides difficile; details: compound 45 μM, germinant 6 mM taurocholate and 12 mM glycine, OD600 over 60 min, duplicate; for inhibition at 45 µM: Clostridioides difficile, 1 h
[24] = C. difficile ATCC 43255, 48-h incubation
[25] = ATCC43255, 24 h, C. difficile ATCC 43255, 24 h, read-out: MIC (μg/mL) 24 h
[26] = ATCC43255, Table 1, strain ATCC 43255, read-out: MIC C. difficile
[27] = THP-1 cells, 24 h, read-out: LDH (IC50)
[28] = THP-1, 24 h, read-out: LDH (IC50)
[29] = ATCC43255, C. difficile ATCC43255, read-out: ATCC43255 MIC

SMILES: Oc1ccc(-c2nc(-c3ccc(Oc4ccc(C(F)(F)F)cc4)cc3)no2)cc1 [Compound 9]
MIC (μg/mL) 48 h [1, 24]: 2 µg/mL (≈ 5.02 µM)
MIC (μg/mL) 24 h ([1]; C. difficile ATCC 43255, 24 h): 2 µg/mL (≈ 5.02 µM)
MIC C. difficile ([1]; strain ATCC 43255): 2 µg/mL (≈ 5.02 µM)
MIC (μg/mL) 24 h [2]: 1 µg/mL (≈ 2.51 µM)
LDH (IC50) ([3]; THP-1 cells, 24 h): 17 ± 1 µg/mL

SMILES: Oc1ccc(-c2nc(-c3ccc(Oc4ccc(C(F)(F)F)cc4)cc3)no2)cc1F [Compound 10]
MIC (μg/mL) 48 h [1, 24]: 4 µg/mL (≈ 9.61 µM)
MIC (μg/mL) 24 h ([1]; C. difficile ATCC 43255, 24 h): 4 µg/mL (≈ 9.61 µM)
MIC C. difficile ([1]; strain ATCC 43255): 4 µg/mL (≈ 9.61 µM)
MIC (μg/mL) 24 h [2]: 2 µg/mL (≈ 4.8 µM)
LDH (IC50) ([3]; THP-1 cells, 24 h): 5.2 ± 0.02 µg/mL

SMILES: Oc1c(F)cc(-c2nc(-c3ccc(Oc4ccc(C(F)(F)F)cc4)cc3)no2)cc1F [Compound 11]
MIC (μg/mL) 48 h [1, 24]: 4 µg/mL (≈ 9.21 µM)
MIC (μg/mL) 24 h ([1]; C. difficile ATCC 43255, 24 h): 4 µg/mL (≈ 9.21 µM)
MIC C. difficile ([1]; strain ATCC 43255): 4 µg/mL (≈ 9.21 µM)
MIC (μg/mL) 24 h [2]: 2 µg/mL (≈ 4.6 µM)
LDH (IC50) ([3]; THP-1 cells, 24 h): 18 ± 2 µg/mL

SMILES: O=[N+]([O-])c1cc(-c2nc(-c3ccc(Oc4ccc(C(F)(F)F)cc4)cc3)no2)cnc1O [Compound 16]
MIC (μg/mL) 48 h [1, 24]: 2 µg/mL (≈ 4.5 µM)
MIC (μg/mL) 24 h ([1]; C. difficile ATCC 43255, 24 h): 2 µg/mL (≈ 4.5 µM)
MIC C. difficile ([1]; strain ATCC 43255): 2 µg/mL (≈ 4.5 µM)
MIC (μg/mL) 24 h [2]: 8 µg/mL (≈ 18 µM)
LDH (IC50) ([3]; THP-1 cells, 24 h): 37 ± 11 µg/mL

SMILES: O=[N+]([O-])c1c[nH]nc1-c1nc(-c2ccc(Oc3ccc(C(F)(F)F)cc3)cc2)no1 [Compound 30]
MIC (μg/mL) 48 h [1, 24]: 4 µg/mL (≈ 9.59 µM)
MIC (μg/mL) 24 h ([1]; C. difficile ATCC 43255, 24 h): 4 µg/mL (≈ 9.59 µM)
MIC C. difficile ([1]; strain ATCC 43255): 4 µg/mL (≈ 9.59 µM)
MIC (μg/mL) 24 h [2]: 2 µg/mL (≈ 4.79 µM)
LDH (IC50) ([3]; THP-1 cells, 24 h): 21 ± 5 µg/mL

SMILES: Oc1ccc(-c2nc(-c3ccc(OC4CCCC=C4Br)cc3)no2)cc1 (stereo not shown) [Compound 99, 4-(3-(4-((2-Bromocyclohex-2-en-1-yl)oxy)phenyl)-1,2,4-oxadiazol-5-yl)phenol]
MIC [1, 25]: 2 µg/mL (≈ 4.84 µM)
MIC ([1]; ATCC43255, 48 h, C. difficile ATCC 43255, 48-h incubation, read-out: MIC (μg/mL) 48 h): 2 µg/mL (≈ 4.84 µM)
MIC [1, 26]: 2 µg/mL (≈ 4.84 µM)
MIC [2]: 4 µg/mL (≈ 9.68 µM)
IC50 [3, 28]: 8.4 ± 0.3 µg/mL (≈ 20.3 µM)

SMILES: O=[N+]([O-])c1c[nH]nc1-c1nc(-c2ccc(OC(F)(F)F)cc2)no1 [Compound 115, 5-(4-Nitro-1H-pyrazol-3-yl)-3-(4-(trifluoromethoxy)phenyl)-1,2,4-oxadiazole]
MIC [1, 25]: 2 µg/mL (≈ 5.86 µM)
MIC [1, 26]: 4 µg/mL (≈ 11.7 µM)
IC50 [3, 28]: 25 ± 4 µg/mL (≈ 73.3 µM)

SMILES: O=[N+]([O-])c1c[nH]nc1-c1nc(-c2ccc3oc4ccccc4c3c2)no1 [Compound 118, 3-(Dibenzo[b,d]furan-2-yl)-5-(4-nitro-1H-pyrazol-3-yl)-1,2,4-oxadiazole]
MIC [1, 25]: 4 µg/mL (≈ 11.5 µM)
MIC [1, 26]: 4 µg/mL (≈ 11.5 µM)
MIC [2]: 2 µg/mL (≈ 5.76 µM)
IC50 [3, 28]: 9.8 ± 3.3 µg/mL (≈ 28.2 µM)

SMILES: Cl.O=[N+]([O-])c1c[nH]c(-c2nc(-c3ccc(CN4CCCC4)cc3)no2)n1 [Compound 130]
MIC (μg/mL) 48 h ([1]; C. difficile ATCC 43255, 48-h incubation, Hydrochloride): >128 µg/mL
MIC [1, 25]: > 128 µg/mL
solubility [4]: barely soluble in DMSO

SMILES: O=[N+]([O-])c1cnc(-c2nc(-c3ccc(OC4CCC4)cc3)no2)[nH]1 [Compound 131, 3-(4-Cyclobutoxyphenyl)-5-(5-nitro-1H-imidazol-2-yl)-1,2,4-oxadiazole]
MIC [1, 25]: 0.5 µg/mL (≈ 1.53 µM)
MIC [1, 26]: 0.25 µg/mL (≈ 0.764 µM)
IC50 [3, 28]: > 128 µg/mL
IC50 ([3]; THP-1, read-out: toxicity IC50 (LDH assay)): > 50 µg/mL
IC50 [5]: 41.9 ± 4.5 µg/mL (≈ 128 µM)

SMILES: CN[C@H](CC(C)C)C(=O)N[C@H]1C(=O)N[C@@H](CC(N)=O)C(=O)N[C@H]2C(=O)N[C@H]3C(=O)N[C@H](C(=O)N[C@H](C(=O)O)c4cc(O)cc(O)c4-c4cc3ccc4O)[C@H](O)c3ccc(c(Cl)c3)Oc3cc2cc(c3O[C@@H]2O[C@H](CO)[C@@H](O)[C@H](O)[C@H]2O[C@H]2C[C@](C)(N)[C@H](O)[C@H](C)O2)Oc2ccc(cc2Cl)[C@H]1O [VAN, vancomycin]
MIC [6]: > 128 µg/mL
MIC [7]: > 128 µg/mL
MIC [8]: > 128 µg/mL
MIC [9]: > 128 µg/mL
MIC [10]: > 128 µg/mL
activity against Gram-positive bacteria [11]: has activity
activity against Gram-negative organisms [12]: no activity
bactericidal or bacteriostatic [13]: bacteriostatic
increase in MIC on serial passage [14]: 16 fold
MIC [15]: 16 µg/mL (≈ 11 µM)
MIC [16]: 0.25 µg/mL (≈ 0.173 µM)
MIC [17]: 0.25 µg/mL (≈ 0.173 µM)
MIC [18]: >32 µg/mL
MIC [19]: 1 µg/mL (≈ 0.69 µM)
MIC [20]: >32 µg/mL
recurrence of infection [21]: 24%
effect on vegetative cells by SEM [22]: damage the cell wall; also recorded: same effect

Further lines, with some results ahead:

MIC [1, 25]: 4 µg/mL
MIC [1, 26]: 4 µg/mL
MIC [2]: 2 to 4 µg/mL
SMILES: Cl.NCc1ccc(-c2nc(-c3ccc(Oc4ccc(C(F)(F)F)cc4)cc3)no2)cc1 [Compound 17, (4-(3-(4-(4-(Trifluoromethyl)phenoxy)phenyl)-1,2,4-oxadiazol-5-yl)phenyl) methanamine hydrochloride salt]
IC50 [3, 27]: 4.4 ± 0.7 µg/mL

MIC [1, 25]: 4 µg/mL (≈ 12.4 µM)
MIC [1, 26]: 4 µg/mL (≈ 12.4 µM)
SMILES: Oc1ccc(-c2noc(-c3ccc(OC4CCCC4)cc3)n2)cc1 [Compound 137, 5-(4-(Cyclopentyloxy)phenyl)-3-(4-hydroxyphenyl)-1,2,4-oxadiazole]
IC50 [3, 27]: 8.5 ± 0.2 µg/mL (≈ 26.4 µM)

MIC [1, 29]: 8 µg/mL (≈ 21 µM)
SMILES: NCc1ccc(-c2nc(-c3ccc(Oc4ccc(F)c(F)c4)cn3)no2)cc1 [YQ-4-99]
inhibition at 45 µM [23]: 44 ± 3%

MIC [1, 29]: 8 µg/mL (≈ 19.4 µM)
SMILES: NCc1ccc(-c2nc(-c3ccnc(Oc4ccc(C(F)(F)F)cc4)c3)no2)cc1 [YQ-4-104]
inhibition at 45 µM [23]: 74 ± 5%

MIC [1, 29]: 16 µg/mL (≈ 42.4 µM)
SMILES: CC(C)Oc1ccc(-c2noc(-c3ccc(CN)cc3)n2)cc1C(F)(F)F [YQ-4-155]
inhibition at 45 µM [23]: 33 ± 1%

MIC [1, 29]: > 128 µg/mL
SMILES: NCc1ccc(-c2noc(-c3ccnc(-c4ccc(C(F)(F)F)cc4)c3)n2)cc1 [YQ-4-161]
inhibition at 45 µM [23]: 55 ± 1%

MIC [1, 29]: 16 µg/mL (≈ 40.4 µM)
SMILES: NCc1ccc(-c2nc(-c3ccnc(-c4ccc(C(F)(F)F)cc4)c3)no2)cc1 [YQ-4-163]
inhibition at 45 µM [23]: 68 ± 5%

MIC [1, 29]: 8 µg/mL (≈ 22.9 µM)
SMILES: NCc1ccc(-c2nc(-c3ccc(OC4CCCCC4)cc3)no2)cc1 [YQ-4-165]
inhibition at 45 µM [23]: 50 ± 2%

ATCC43255 MIC ([1]; C. difficile ATCC43255): 8 µg/mL
SMILES: C#Cc1ccc(Oc2cnc(-c3noc(-c4ccc(CN)cc4)n3)cc2C2(C(F)(F)F)N=N2)cc1 [YQ-4-169]
% Spore Germination Inhibition at 45 μM [23]: 63 ± 3%

MIC [1, 29]: 8 µg/mL (≈ 21.3 µM)
SMILES: NCCc1ccc(-c2nc(-c3ccc(Oc4ccc(F)cc4)cn3)no2)cc1 [YQ-4-170]
inhibition at 45 µM [23]: 48 ± 2%
